Experiment [1] addresses T1, HCN2 (Homo sapiens, UniProt Q9UL51).
T1 sequence (Q9UL51 1-889): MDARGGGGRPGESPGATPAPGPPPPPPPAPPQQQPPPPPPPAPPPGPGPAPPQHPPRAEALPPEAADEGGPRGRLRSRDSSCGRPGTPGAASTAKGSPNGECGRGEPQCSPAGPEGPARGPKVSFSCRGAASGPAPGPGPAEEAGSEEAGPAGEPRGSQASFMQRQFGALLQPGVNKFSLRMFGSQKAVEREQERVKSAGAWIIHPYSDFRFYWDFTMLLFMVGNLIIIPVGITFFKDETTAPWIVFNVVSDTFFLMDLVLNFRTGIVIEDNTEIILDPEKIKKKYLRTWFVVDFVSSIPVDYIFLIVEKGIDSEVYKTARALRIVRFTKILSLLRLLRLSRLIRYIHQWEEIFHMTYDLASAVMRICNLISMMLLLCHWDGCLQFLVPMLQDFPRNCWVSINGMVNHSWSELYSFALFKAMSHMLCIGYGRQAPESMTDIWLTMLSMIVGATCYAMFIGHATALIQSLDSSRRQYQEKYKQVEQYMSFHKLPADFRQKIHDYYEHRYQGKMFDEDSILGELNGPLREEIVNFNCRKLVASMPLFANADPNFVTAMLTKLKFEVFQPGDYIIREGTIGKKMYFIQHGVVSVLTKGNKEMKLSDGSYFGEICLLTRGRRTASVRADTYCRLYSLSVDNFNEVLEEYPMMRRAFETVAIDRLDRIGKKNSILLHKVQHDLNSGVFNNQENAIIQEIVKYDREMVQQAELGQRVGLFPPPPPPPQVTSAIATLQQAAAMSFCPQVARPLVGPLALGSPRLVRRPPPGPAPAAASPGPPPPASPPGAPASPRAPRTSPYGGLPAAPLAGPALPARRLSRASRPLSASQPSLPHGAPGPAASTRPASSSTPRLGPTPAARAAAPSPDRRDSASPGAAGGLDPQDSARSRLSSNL
The experiment can be described thus: HCN2 assay using PatchXpress 7000A (Example 50A). It is filed as cell-based. Conditions: PatchXpress protocol (PX). An excerpt: (§1) Solutions for recording HON currents were:
For HCN1 and HCN2, the pulse protocol involved stepping from a holding potential of −30 mV to −110 mV (see FIG. 1A) for 2 seconds to evoke the current. The membrane voltage was then stepped back to −30 mV for a further 8 seconds. This sequence was evoked repeatedly every 10 seconds throughout the experiment, starting prior to drug (Control A) and during cumulative additions of 5 increasing compound concentrations, then finally a 100% inhibiting concentration of cesium chloride (CsCl, 3 mM).
(§2) The peak inward current measured at the end of the pulse to −110 mV (HCN1 and HCN2) or −130 mV (HCN4) was measured and any leak current subtracted to calculate the HCN current. The HCN current amplitude was measured after each control or compound addition and normalized to the control amplitude (Control A).
(§3) All experiments were performed at room temperature (approximately 22° C.).
(§4) Each test compound concentration was applied to the cell for seven (7) minutes, at which point the next cumulative concentration was applied. 3 mM CsCl was applied to each cell for 2 minutes at the end of each experiment (Control B) to determine 100% inhibition level of the HCN current.

The target in experiment [2] is T2, HCN4 (Homo sapiens, UniProt Q9Y3Q4).
T2 sequence (Q9Y3Q4 1-1203): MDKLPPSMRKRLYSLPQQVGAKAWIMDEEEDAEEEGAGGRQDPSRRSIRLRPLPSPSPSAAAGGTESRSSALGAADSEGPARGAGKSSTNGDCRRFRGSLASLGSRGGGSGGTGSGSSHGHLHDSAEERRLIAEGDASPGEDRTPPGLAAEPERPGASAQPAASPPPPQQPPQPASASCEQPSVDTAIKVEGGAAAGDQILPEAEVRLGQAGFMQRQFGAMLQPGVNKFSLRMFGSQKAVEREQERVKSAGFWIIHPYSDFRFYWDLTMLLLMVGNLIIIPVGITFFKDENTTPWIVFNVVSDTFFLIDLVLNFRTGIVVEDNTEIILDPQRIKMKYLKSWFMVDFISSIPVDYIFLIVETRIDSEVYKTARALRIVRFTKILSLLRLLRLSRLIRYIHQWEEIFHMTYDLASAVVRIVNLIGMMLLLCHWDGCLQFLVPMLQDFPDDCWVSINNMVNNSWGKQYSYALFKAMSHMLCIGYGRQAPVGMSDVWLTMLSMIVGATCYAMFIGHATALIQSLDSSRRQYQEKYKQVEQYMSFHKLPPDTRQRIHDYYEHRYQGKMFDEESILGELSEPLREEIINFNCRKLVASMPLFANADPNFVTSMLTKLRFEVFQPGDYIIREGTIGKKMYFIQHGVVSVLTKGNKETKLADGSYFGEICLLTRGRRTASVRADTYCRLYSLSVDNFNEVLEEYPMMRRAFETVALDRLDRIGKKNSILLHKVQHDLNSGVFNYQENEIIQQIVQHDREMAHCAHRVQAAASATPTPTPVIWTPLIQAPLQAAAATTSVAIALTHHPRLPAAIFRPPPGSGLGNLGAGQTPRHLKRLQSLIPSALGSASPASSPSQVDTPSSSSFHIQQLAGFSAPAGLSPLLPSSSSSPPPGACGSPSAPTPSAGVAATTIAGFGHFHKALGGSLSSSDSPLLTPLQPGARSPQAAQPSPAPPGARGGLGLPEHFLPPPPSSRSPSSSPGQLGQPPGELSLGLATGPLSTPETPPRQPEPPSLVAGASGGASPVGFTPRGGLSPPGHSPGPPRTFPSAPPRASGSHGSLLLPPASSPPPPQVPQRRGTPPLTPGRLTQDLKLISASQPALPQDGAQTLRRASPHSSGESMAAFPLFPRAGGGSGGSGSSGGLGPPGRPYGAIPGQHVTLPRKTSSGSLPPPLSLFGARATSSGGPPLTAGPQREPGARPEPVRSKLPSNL
The experiment can be described thus: HCN4 assay using PatchXpress 7000A (Example 50A). Conditions: PatchXpress protocol (PX). It is filed as cell-based. Here is the method:
as §1
For HCN4, the pulse protocol involved stepping from a holding potential of −30 mV to −130 mV (see FIG. 1B) for 4 seconds to evoke the current.
as §2, §3, §4

Structures can show the parent of a compound that is named as a salt.

In general, IC50 refers to the point on the concentration scale where inhibition reaches its midpoint. Low readings indicate greater potency in that assay, high ones weaker potency in that assay. On to `Cc1cccc(C[C@H](N)c2ncccc2-n2ncc3ccccc32)n1` [Example 5, (S)-1-[3-(1H-indazole-1-yl)pyridine-2-yl]-2-(6-methylpyridine-2-yl)ethan-1-amine hydrochloride], for which the IC50 in experiment [1] was 1900 nM; in experiment [2], > 30 µM.
The corresponding values for `Cc1cccnc1C[C@H](N)c1ncccc1-n1ncc2ccccc21` [Example 16, (S)-1-[3-(1H-indazole-1-yl)pyridine-2-yl]-2-(3-methylpyridine-2-yl)ethan-1-amine hydrochloride] are 130 nM and 2.1 µM.
As to `N[C@@H](Cc1ncccc1F)c1ncccc1-n1ncc2cc(F)ccc21` [Example 28, (S)-1-[3-(5-Fluoro-1H-indazole-1-yl)pyridine-2-yl]-2-(3-fluoropyr- -idine-2-yl)ethan-1-amine hydrochloride], the figures for the IC50 in experiment [1] and in experiment [2] were 1000 nM and > 30 µM, respectively.
With `N[C@@H](Cc1cccc(F)n1)c1ncccc1-n1ncc2ccccc21` [Example 17, (S)-1-[3-(1H-indazole-1-yl)pyridine-2-yl]-2-(6-fluoropyridine-2-yl)ethan-1-amine hydrochloride], the IC50 in experiment [1] came out at 3300 nM; in experiment [2] it was 14.7 µM.
The compound `NC(=O)c1ccc(F)c(C[C@H](N)c2ncccc2-n2ncc3ccccc32)n1` [Example 19, (S)-6-{2-[3-(1H-ind-azol-1-yl)pyridine-2-yl]-2-aminoethyl}-5-fluoropyridine-2-carboxamide hydro-chloride] had a half-maximal inhibitory concentration (IC50) in experiment [1] of 6900 nM.
Regarding `CCc1cccc(C[C@H](N)c2ncccc2-n2ncc3ccccc32)n1` [Example 15, (S)-1-[3-(1H-indazole-1-yl)pyridine-2-yl]-2-(6-ethylpyridine-2-yl)-ethan-1-amine hydro-chloride], the IC50 in experiment [1] is 2100 nM; in experiment [2], 14.8 µM.
The corresponding values for `Cc1cc(F)cnc1C[C@H](N)c1ncccc1-n1ncc2ccccc21` [Example 26, (S)-1-[3-(1H-indazole-1-yl)pyridine-2-yl]-2-(5-fluoro-3-methyl-pyridine-2-yl)ethan-1-amine hydrochloride] are 15 nM and 0.5 µM.
Turning to `N#Cc1nc(C[C@H](N)c2ncccc2-n2ncc3ccccc32)ccc1F` [Example 22, (S)-6-{2-[3-(1H-ind-azol-1-yl)pyridine-2-yl]-2-aminoethyl}-3-fluoropyridine-2-carbonitrile hydro-chloride], the concentration for half-maximal inhibition (IC50) turned out to be 320 nM in experiment [1] and 13.4 µM in experiment [2].
As for `NC(=O)c1nc(C[C@H](N)c2ncccc2-n2ncc3ccccc32)ccc1F` [Example 27, (S)-6-{2-[3-(1H-ind-azol-1-yl)pyridine-2-yl]-2-aminoethyl}-3-fluoropyridine-2-carboxamide hydro-chloride], the half-maximal inhibitory concentration (IC50) in experiment [1] is > 10000 nM.
Still for that read-out and setting: the value for `N[C@@H](Cc1cccc(OCCO)n1)c1ncccc1-n1ncc2ccccc21` [Example 13, (S)-2-[(6-{2-[3-(1H-Indazol-1-yl)pyridine-2-yl]-2-aminoethyl}-pyridine-2-yl)oxy]-ethan-1-ol hydro-chloride] was > 10000 nM.
With `Cc1ccc(F)c(C[C@H](N)c2ncccc2-n2ncc3ccccc32)n1` [Example 11, (S)-1-[3-(1H-indazole-1-yl)pyridine-2-yl]-2-(3-fluoro-6-methyl-pyridine-2-yl)ethan-1-amine hydrochloride], in experiment [1], the half-maximal inhibitory concentration (IC50) worked out at 160 nM.
Turning to `CS(=O)(=O)c1ccc(F)c(C[C@H](N)c2ncccc2-n2ncc3ccccc32)n1` [Example 21, (S)-1-[3-(1H-indazole-1-yl)pyridine-2-yl]-2-(3-fluoro-6-methyl-sulfonylpyridine-2-yl)-ethan-1-amine formate], the figures for the concentration for half-maximal inhibition (IC50) in experiment [1] and in experiment [2] were 1100 nM and ≥ 30 µM, respectively.
On to `CCc1ccc(F)c(C[C@H](N)c2ncccc2-n2ncc3ccccc32)n1` [Example 25, (S)-1-[3-(1H-indazole-1-yl)pyridine-2-yl]-2-(3-fluoro-6-ethylpyr-idine-2-yl)ethan-1-amine hydrochloride], for which the results for the concentration for half-maximal inhibition (IC50) in experiment [1] and in experiment [2] were 340 nM and 1.6 µM, respectively.
As for `N[C@@H](Cc1cccc(-c2cn[nH]c2)n1)c1ncccc1-n1ncc2ccccc21` [Example 12, (S)-1-[3-(1H-indazole-1-yl)pyridine-2-yl]-2-[6-(1H-pyrazol-4-yl)-pyridine-2-yl)ethan-1-amine hydrochloride], the half-inhibitory concentration (IC50) in experiment [1] is > 10000 nM.
For `N#Cc1cccc(C[C@H](N)c2ncccc2-n2ncc3ccccc32)n1` [Example 6, (S)-6-{2-[3-(1H-ind-azol-1-yl)pyridine-2-yl]-2-aminoethyl}pyridine-2-carbonitrile hydro-chloride], the IC50 came to 1100 nM in experiment [1] and 22.2 µM in experiment [2].
Turning to `NC(=O)c1cccc(C[C@H](N)c2ncccc2-n2ncc3ccccc32)n1` [Example 9, (S)-6-{2-[3-(1H-ind-azol-1-yl)pyridine-2-yl]-2-aminoethyl}pyridine-2-carboxamide hydro-chloride], the half-inhibitory concentration (IC50) is 17300 nM in experiment [1] and > 30 µM in experiment [2].
Compound `N[C@@H](Cc1nc(CCO)ccc1F)c1ncccc1-n1ncc2ccccc21` [Example 24, (S)-2-(6-{2-[3-(1H-Indazol-1-yl)pyridine-2-yl]-2-aminoethyl}-5-fluoropyridine-2-yl)-ethan-1-ol hydrochloride] registered a 50% inhibitory concentration (IC50) in experiment [2] of 19.2 µM.
As for `CN(C)C(=O)c1ccc(F)c(C[C@H](N)c2ncccc2-n2ncc3ccccc32)n1` [Example 29, (S)-6-{2-[3-(1H-ind-azol-1-yl)pyridine-2-yl]-2-aminoethyl}-5-fluoro-N,N-dimethylpyridine-2-carboxamide hydro-chloride], the IC50 in experiment [1] amounted to 2600 nM.
With `CS(=O)(=O)c1cccc(C[C@H](N)c2ncccc2-n2ncc3ccccc32)n1` [Example 49, (S)-1-[3-(1H-indazole-1-yl)pyridine-2-yl]-2-(6-methylsulfonyl-pyridine-2-yl)ethan-1-amine hydrochloride], in experiment [1], the half-inhibitory concentration (IC50) is ~10000 nM.
As for `N[C@@H](Cc1cccc(CCO)n1)c1ncccc1-n1ncc2ccccc21` [Example 14, (S)-2-(6-{2-[3-(1H-Indazol-1-yl)pyridine-2-yl]-2-aminoethyl}-pyridine-2-yl)ethan-1-ol hydrochloride], the concentration for half-maximal inhibition (IC50) in experiment [1] stood at 3700 nM.
